Reference: patent US11179424B2, “Hyaluronic acid production promoting agent” (Pharma Foods International Co., Ltd., priority 2015, dated 2021)

What was measured:
[1] = tested on: mouse chondrogenic cell line ATDC5; experiment: Cartilage matrix production by chondrogenic cells, Alcian blue (Test Example 6); assay type: cell-based; conditions: 500 μM, insulin 0.1 μg/mL, 14 days, FIG. 19
Protocol: The mouse chondrogenic cell line ATDC5 (RIKEN BRC No. RCB0565) was cultured until subconfluence at 37° C. in an atmosphere of 5 vol % CO2 and 95 vol % air in DMEM/F-12 medium supplemented with 5% (w/w) FBS, 1% (w/w) penicillin-streptomycin solution, 5 μg/mL transferrin, and 3×10^−8M sodium selenite. The cells were collected by trypsin treatment. The collected cells were suspended in fresh DMEM/F-12 medium with the same supplements as above to give a cell suspension (50×10^4 cells/mL). The cell suspension was spot-seeded at a volume of 20 μL in each well of a 24-well plate, and the cells were precultured at 37° C. in an atmosphere of 5 vol % CO2 and 95 vol % air for 3 hours. The medium in each well was replaced with fresh DMEM/F-12 medium containing the same supplements as above and the Phe-Hyp dipeptide (at a final concentration of 500 μM) and insulin (at a final concentration of 0.1 μg/mL), and the cells were cultured for 14 days. The cartilage matrix produced by the chondrogenic cells was stained with Alcian blue staining solution, the stained cartilage matrix was quantified with Image J (National Institutes of Health), and the results were evaluated. The amount of the cartilage matrix produced by the chondrogenic cells in the sample addition group was expressed in terms of a relative value, with the amount of the cartilage matrix in the no sample group taken as 100.

SOX9 mRNA in ATDC5 = experiment: Cartilage differentiation-related gene expression in chondrogenic cells: SOX9 (Test Example 7); assay type: cell-based, mouse; conditions: 500 μM, insulin 0.1 μg/mL, 3 days, normalized to GAPDH, FIG. 20
Protocol: (§1) The mouse chondrogenic cell line ATDC5 (RIKEN BRC No. RCB0565) was cultured until subconfluence at 37° C. in an atmosphere of 5 vol % CO2 and 95 vol % air in DMEM/F-12 medium supplemented with 5% (w/w) FBS, 1% (w/w) penicillin-streptomycin solution, 5 μg/mL transferrin, and 3×10^−8 M sodium selenite. The cells were collected by trypsin treatment. The collected cells were suspended in fresh DMEM/F-12 medium with the same supplements as above to give a cell suspension (10×10^4 cells/mL). The cell suspension was seeded at a volume of 500 μL in each well of a 24-well plate, and the cells were precultured at 37° C. in an atmosphere of 5 vol % CO2 and 95 vol % air for 2 days. The medium in each well was replaced with fresh DMEM/F-12 medium containing the same supplements as above and the Phe-Hyp dipeptide (at a final concentration of 500 μM) and insulin (at a final concentration of 0.1 μg/mL), and the cells were cultured for 3 days. As a positive control, 10 μg/mL insulin was used. At end of culture, total RNA extraction and cDNA synthesis were performed, the relative mRNA expression levels of cartilage differentiation-related genes were quantified by real-time PCR and were normalized to the GAPDH mRNA expression level, and the results were evaluated. […]

Acan mRNA in ATDC5 = experiment: Cartilage differentiation-related gene expression in chondrogenic cells: Acan (Test Example 7); assay type: cell-based, mouse; conditions: 500 μM, insulin 0.1 μg/mL, 3 days, normalized to GAPDH, FIG. 21
Protocol: as §1

Col X mRNA in ATDC5 = experiment: Cartilage differentiation-related gene expression in chondrogenic cells: Col X (Test Example 7); assay type: cell-based, mouse; conditions: 500 μM, insulin 0.1 μg/mL, 3 days, normalized to GAPDH, FIG. 22
Protocol: as §1

has2 mRNA in ATDC5 = experiment: Cartilage differentiation-related gene expression in chondrogenic cells: has2 (Test Example 7); assay type: cell-based, mouse; conditions: 500 μM, insulin 0.1 μg/mL, 3 days, normalized to GAPDH, FIG. 23
Protocol: as §1

[2] = tested on: ex vivo mouse knee joints; experiment: Ex vivo hyaluronic acid production in knee joints of mice (Test Example 8); conditions: 1 mg/mL, one day incubation, ELISA, FIG. 24
Protocol: DMEM/F-12 medium supplemented with 1 mg/mL Phe-Hyp dipeptide, 5% (w/w) FBS, 1% (w/w) penicillin-streptomycin solution, 5 μg/mL transferrin, and 3×10^−8 M sodium selenite was added to each well of a 24-well plate at a volume of 1 mL per well. The femur and tibia were harvested from the right and left hind legs of ddY mice (female, retired). The synovial membrane was incised to expose the cartilage, and the bones were placed in each well so that only the joint was immersed in the medium. The bones were incubated at 37° C. in an atmosphere of 5 vol % CO2 and 95 vol % air for one day. At end of incubation, the supernatants were recovered and centrifuged at 1500×g at 4° C. for 30 minutes. The supernatants were recovered, the amount of hyaluronic acid was measured by ELISA and the results were evaluated. The amount of the hyaluronic acid in the sample addition group was expressed in terms of a relative value, with the amount of hyaluronic acid in the no sample group taken as 100.

N[C@@H](Cc1ccccc1)C(=O)N1CC(O)C[C@H]1C(=O)O (stereo partly drawn) [Phe-Hyp dipeptide, phenylalanyl-4-hydroxyproline]
cartilage matrix production by chondrogenic cells (Alcian blue) [1]: promoted cartilage matrix production | SOX9 mRNA expression level (SOX9 mRNA in ATDC5): enhanced the expression | Acan mRNA expression level (Acan mRNA in ATDC5): enhanced the expression | Col X mRNA expression level (Col X mRNA in ATDC5): enhanced the expression | has2 mRNA expression level (has2 mRNA in ATDC5): enhanced the expression | amount of hyaluronic acid produced in ex vivo mouse knee joints [2]: promoted ex vivo hyaluronic acid production
